Measured values: PubChem BioAssay (NCI)
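Five compound concentrations were applied to cells in 96-well plates for 48 hours; endpoints were derived by simple linear interpolation of the resulting dose-response curve. TGI is the concentration that stops growth completely.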

Tests used:
Assay in all cases: growth of human tumour cells (NCI), 48 h
M19-MEL melanoma = tested on: M19-MEL melanoma
SR leukemia = tested on: SR leukemia
NCI-H460 lung = tested on: NCI-H460 lung
UO-31 renal = tested on: UO-31 renal
KM20L2 colon = tested on: KM20L2 colon
XF 498 CNS = tested on: XF 498 CNS
SNB-19 CNS = tested on: SNB-19 CNS
SN12C renal = tested on: SN12C renal
A549 NSCLC = tested on: A549 NSCLC
OVCAR-5 ovarian = tested on: OVCAR-5 ovarian
HCT-116 colon = tested on: HCT-116 colon
MALME-3M melanoma = tested on: MALME-3M melanoma
LXFL 529 NSCLC = tested on: LXFL 529 NSCLC
OVCAR-4 ovarian = tested on: OVCAR-4 ovarian
RPMI-8226 leukemia = tested on: RPMI-8226 leukemia
NCI-H226 lung = tested on: NCI-H226 lung
786-0 renal = tested on: 786-0 renal
UACC-62 melanoma = tested on: UACC-62 melanoma
K-562 leukemia = tested on: K-562 leukemia
U251 CNS = tested on: U251 CNS
SF-539 CNS = tested on: SF-539 CNS
HCC-2998 colon = tested on: HCC-2998 colon
LOX IMVI melanoma = tested on: LOX IMVI melanoma
EKVX NSCLC = tested on: EKVX NSCLC
A498 renal = tested on: A498 renal
NCI-H522 lung = tested on: NCI-H522 lung
HOP-18 NSCLC = tested on: HOP-18 NSCLC
SW-620 colon = tested on: SW-620 colon
HL-60(TB) leukemia = tested on: HL-60(TB) leukemia
HT29 colon = tested on: HT29 colon
SK-MEL-2 melanoma = tested on: SK-MEL-2 melanoma
SK-OV-3 ovarian = tested on: SK-OV-3 ovarian
DLD-1 colon = tested on: DLD-1 colon
UACC-257 melanoma = tested on: UACC-257 melanoma
HCT-15 colon = tested on: HCT-15 colon
COLO 205 colon = tested on: COLO 205 colon
NCI-H23 lung = tested on: NCI-H23 lung
SF-295 CNS = tested on: SF-295 CNS
M14 melanoma = tested on: M14 melanoma
ACHN renal = tested on: ACHN renal
RXF 393 renal = tested on: RXF 393 renal
HOP-62 NSCLC = tested on: HOP-62 NSCLC
OVCAR-8 ovarian = tested on: OVCAR-8 ovarian
MOLT-4 leukemia = tested on: MOLT-4 leukemia
SF-268 CNS = tested on: SF-268 CNS
IGROV1 ovarian = tested on: IGROV1 ovarian
DMS 273 small cell lung = tested on: DMS 273 small cell lung
OVCAR-3 ovarian = tested on: OVCAR-3 ovarian
SNB-78 CNS = tested on: SNB-78 CNS
CAKI-1 renal = tested on: CAKI-1 renal
CCRF-CEM leukemia = tested on: CCRF-CEM leukemia
SNB-75 CNS = tested on: SNB-75 CNS
KM12 colon = tested on: KM12 colon
DMS 114 small cell lung = tested on: DMS 114 small cell lung
SK-MEL-5 melanoma = tested on: SK-MEL-5 melanoma
TK-10 renal = tested on: TK-10 renal
HOP-92 NSCLC = tested on: HOP-92 NSCLC
SK-MEL-28 melanoma = tested on: SK-MEL-28 melanoma

CC1(C)Cc2cc(C(=O)O)c3c(c2C1=O)COCC3
TGI (M19-MEL melanoma): > 100 µM
TGI (SR leukemia): > 100 µM
TGI (NCI-H460 lung): > 100 µM
TGI (UO-31 renal): > 100 µM
TGI (KM20L2 colon): > 100 µM
TGI (XF 498 CNS): > 100 µM
TGI (SNB-19 CNS): > 100 µM
TGI (SN12C renal): > 100 µM
TGI (A549 NSCLC): > 100 µM
TGI (OVCAR-5 ovarian): > 100 µM
TGI (HCT-116 colon): > 100 µM
TGI (MALME-3M melanoma): > 100 µM
TGI (LXFL 529 NSCLC): > 100 µM
TGI (OVCAR-4 ovarian): > 100 µM
TGI (RPMI-8226 leukemia): > 100 µM
TGI (NCI-H226 lung): > 100 µM
TGI (786-0 renal): > 100 µM
TGI (UACC-62 melanoma): > 100 µM
TGI (K-562 leukemia): > 100 µM
TGI (U251 CNS): > 100 µM
TGI (SF-539 CNS): > 100 µM
TGI (HCC-2998 colon): > 100 µM
TGI (LOX IMVI melanoma): > 100 µM
TGI (EKVX NSCLC): > 100 µM
TGI (A498 renal): > 100 µM
TGI (NCI-H522 lung): > 100 µM
TGI (HOP-18 NSCLC): > 100 µM
TGI (SW-620 colon): > 100 µM
TGI (HL-60(TB) leukemia): > 100 µM
TGI (HT29 colon): > 100 µM
TGI (SK-MEL-2 melanoma): > 100 µM
TGI (SK-OV-3 ovarian): > 100 µM
TGI (DLD-1 colon): > 100 µM
TGI (UACC-257 melanoma): > 100 µM
TGI (HCT-15 colon): > 100 µM
TGI (COLO 205 colon): > 100 µM
TGI (NCI-H23 lung): > 100 µM
TGI (SF-295 CNS): > 100 µM
TGI (M14 melanoma): > 100 µM
TGI (ACHN renal): > 100 µM
TGI (RXF 393 renal): > 100 µM
TGI (HOP-62 NSCLC): > 100 µM
TGI (OVCAR-8 ovarian): > 100 µM
TGI (MOLT-4 leukemia): > 100 µM
TGI (SF-268 CNS): > 100 µM
TGI (IGROV1 ovarian): > 100 µM
TGI (DMS 273 small cell lung): > 100 µM
TGI (OVCAR-3 ovarian): > 100 µM
TGI (SNB-78 CNS): > 100 µM
TGI (CAKI-1 renal): > 100 µM
TGI (CCRF-CEM leukemia): > 100 µM
TGI (SNB-75 CNS): > 100 µM
TGI (KM12 colon): > 100 µM
TGI (DMS 114 small cell lung): > 100 µM
TGI (SK-MEL-5 melanoma): > 100 µM

CCc1cccc(C(C)C)c1N1C(=O)C(=O)C(c2nc3ccccc3s2)C(=O)C1=O
TGI (M19-MEL melanoma): > 50 µM
TGI (NCI-H460 lung): > 50 µM
TGI (UO-31 renal): > 50 µM
TGI (KM20L2 colon): > 50 µM
TGI (XF 498 CNS): > 50 µM
TGI (SNB-19 CNS): > 50 µM
TGI (SN12C renal): > 50 µM
TGI (A549 NSCLC): > 50 µM
TGI (OVCAR-5 ovarian): > 50 µM
TGI (HCT-116 colon): > 50 µM
TGI (MALME-3M melanoma): > 45.3 µM
TGI (LXFL 529 NSCLC): > 50 µM
TGI (OVCAR-4 ovarian): > 50 µM
TGI (RPMI-8226 leukemia): > 50 µM
TGI (TK-10 renal): > 50 µM
TGI (786-0 renal): > 50 µM
TGI (UACC-62 melanoma): > 50 µM
TGI (K-562 leukemia): > 50 µM
TGI (U251 CNS): > 50 µM
TGI (SF-539 CNS): > 50 µM
TGI (HCC-2998 colon): > 50 µM
TGI (LOX IMVI melanoma): > 50 µM
TGI (EKVX NSCLC): > 50 µM
TGI (A498 renal): > 50 µM
TGI (NCI-H522 lung): 48.6 µM
TGI (HOP-18 NSCLC): > 50 µM
TGI (SW-620 colon): > 50 µM
TGI (HOP-92 NSCLC): > 50 µM
TGI (HL-60(TB) leukemia): 30.9 µM
TGI (HT29 colon): > 50 µM
TGI (SK-MEL-2 melanoma): > 50 µM
TGI (SK-OV-3 ovarian): > 50 µM
TGI (DLD-1 colon): > 50 µM
TGI (UACC-257 melanoma): > 50 µM
TGI (HCT-15 colon): > 50 µM
TGI (COLO 205 colon): > 50 µM
TGI (NCI-H23 lung): > 50 µM
TGI (SF-295 CNS): > 50 µM
TGI (M14 melanoma): > 50 µM
TGI (ACHN renal): > 50 µM
TGI (RXF 393 renal): > 50 µM
TGI (HOP-62 NSCLC): > 50 µM
TGI (OVCAR-8 ovarian): > 50 µM
TGI (MOLT-4 leukemia): 42.7 µM
TGI (SF-268 CNS): > 50 µM
TGI (IGROV1 ovarian): > 50 µM
TGI (DMS 273 small cell lung): > 50 µM
TGI (OVCAR-3 ovarian): > 43.1 µM
TGI (SNB-78 CNS): > 50 µM
TGI (CAKI-1 renal): > 50 µM
TGI (SK-MEL-28 melanoma): > 50 µM
TGI (CCRF-CEM leukemia): > 42.1 µM
TGI (SNB-75 CNS): > 50 µM
TGI (KM12 colon): > 50 µM
TGI (DMS 114 small cell lung): > 50 µM
TGI (SK-MEL-5 melanoma): > 50 µM
